Laboratory results from ChEMBL document CHEMBL3779790, “Novel Imbricatolic acid derivatives as protein tyrosine phosphatase-1B inhibitors: Design, synthesis, biological evaluation and molecular docking” (Bioorg Med Chem Lett, 2016).

Tests used:
[1] = target: T1, Tyrosine-protein phosphatase non-receptor type 1 (Homo sapiens) (UniProt P18031); test: Inhibition of human recombinant PTP-1B using IR5 insulin receptor residues as substrate at 1 uM after 30 mins by malachite green assay
T1 sequence (whole entry): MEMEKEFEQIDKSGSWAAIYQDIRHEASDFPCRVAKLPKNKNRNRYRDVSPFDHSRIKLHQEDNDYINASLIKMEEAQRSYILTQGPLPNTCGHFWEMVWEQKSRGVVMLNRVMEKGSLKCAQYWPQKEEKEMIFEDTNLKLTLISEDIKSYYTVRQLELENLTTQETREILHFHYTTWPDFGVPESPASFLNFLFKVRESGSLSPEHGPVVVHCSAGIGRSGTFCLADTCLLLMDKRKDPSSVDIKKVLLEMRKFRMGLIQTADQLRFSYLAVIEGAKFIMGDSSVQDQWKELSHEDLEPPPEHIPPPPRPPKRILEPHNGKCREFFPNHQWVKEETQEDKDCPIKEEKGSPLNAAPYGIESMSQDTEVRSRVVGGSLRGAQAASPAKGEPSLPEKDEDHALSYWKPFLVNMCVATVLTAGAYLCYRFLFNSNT

[2] = target: T1, Tyrosine-protein phosphatase non-receptor type 1 (Homo sapiens); test: Inhibition of human recombinant PTP-1B using IR5 insulin receptor residues as substrate at 30 uM after 30 mins by malachite green assay
[3] = target: T1, Tyrosine-protein phosphatase non-receptor type 1 (Homo sapiens); test: Inhibition of human recombinant PTP-1B using IR5 insulin receptor residues as substrate at 100 uM after 30 mins by malachite green assay
[4] = target: T1, Tyrosine-protein phosphatase non-receptor type 1 (Homo sapiens); test: Inhibition of human recombinant PTP-1B using IR5 insulin receptor residues as substrate at 10 uM after 30 mins by malachite green assay
[5] = target: T2, Tyrosine-protein phosphatase non-receptor type 1 (Homo sapiens, UniProt P18031); test: Inhibition of human recombinant PTP-1B using IR5 insulin receptor residues as substrate after 30 mins by malachite green assay
T2 sequence (P18031 whole entry): T1 sequence (whole entry)

[6] = target: T1, Tyrosine-protein phosphatase non-receptor type 1 (Homo sapiens); test: Inhibition of human recombinant PTP-1B using IR5 insulin receptor residues as substrate at 5 uM after 30 mins by malachite green assay

Compound	inhibition [1]	inhibition [2]	inhibition [3]	inhibition [4]	IC50 [5]	inhibition [6]
C=C1CC[C@@H]2[C@](C)(CCC[C@]2(C)N=C=O)[C@H]1CC[C@H](C)CN=C=O	–	–	–	45.7%	–	–
C=C1CC[C@@H]2[C@](C)(CCC[C@]2(C)N=C=O)[C@H]1CC[C@H](C)C/C=N/OC(C)=O	–	–	–	44.8%	–	–
C=C1CC[C@@H]2[C@](C)(CCC[C@]2(C)NC(N)=O)[C@H]1CC[C@H](C)CCO	8.2%	79.2%	87.2%	61.5%	6.3 µM	25.9%
C=C1CC[C@@H]2[C@](C)(CCC[C@]2(C)C(=O)O)[C@H]1CC[C@H](C)CC=O	–	–	–	19.9%	–	–
C=C1CC[C@@H]2[C@](C)(CCC[C@]2(C)NC(N)=O)[C@H]1CC[C@H](C)C/C=N/O	7.1%	63.2%	69.2%	59.9%	7.8 µM	38.2%
C=C1CC[C@@H]2[C@](C)(CCC[C@]2(C)C(=O)OCC)[C@H]1CC[C@H](C)CCO	–	–	–	23.1%	–	–

Next, values leading:

inhibition [1]	inhibition [2]	inhibition [3]	inhibition [4]	IC50 [5]	inhibition [6]	Compound
5.9%	67.2%	71.1%	59.2%	8.8 µM	19.2%	C=C1CC[C@@H]2[C@](C)(CCC[C@]2(C)C(=O)O)[C@H]1CC[C@H](C)CCO [IMBRICATOLIC ACID]
–	–	–	40.1%	–	–	C=C1CC[C@@H]2[C@](C)(CCC[C@]2(C)C(=O)O)[C@H]1CC[C@H](C)C/C=N/O
–	–	–	35.6%	–	–	C=C1CC[C@@H]2[C@](C)(CCC[C@]2(C)C(=O)O)[C@H]1CC[C@H](C)CC(=O)O
–	–	–	29.5%	–	–	C=C1CC[C@H]2[C@@](C)(CO)CCC[C@]2(C)[C@H]1CC[C@H](C)CCO
–	–	–	34.2%	–	–	C=C1CC[C@H]2[C@@](C)(COC(C)=O)CCC[C@]2(C)[C@H]1CC[C@H](C)CCOC(C)=O
11.2%	79.1%	82.2%	65.3%	7 µM	31.7%	C=C1CC[C@@H]2[C@](C)(CCC[C@]2(C)NC(N)=O)[C@H]1CC[C@H](C)C/C=N/OC(C)=O
–	–	–	41.3%	–	–	C=C1CC[C@@H]2[C@](C)(CCC[C@]2(C)N=C=O)[C@H]1CC[C@H](C)CCO
–	–	–	64.3%	–	–	Cc1ccc(C(=O)Nc2ccc(S(=O)(=O)O)c3cc(S(=O)(=O)O)cc(S(=O)(=O)O)c23)cc1NC(=O)c1cccc(NC(=O)Nc2cccc(C(=O)Nc3cc(C(=O)Nc4ccc(S(=O)(=O)O)c5cc(S(=O)(=O)O)cc(S(=O)(=O)O)c45)ccc3C)c2)c1
9.3%	67.2%	79.2%	65.8%	6.8 µM	37.3%	C=C1CC[C@@H]2[C@](C)(CCC[C@]2(C)NC(N)=O)[C@H]1CC[C@H](C)CNC(N)=O
–	–	–	43.5%	–	–	C=C1CC[C@@H]2[C@](C)(CCC[C@]2(C)C(=O)O)[C@H]1CC[C@H](C)C/C=N/OC(C)=O
